Data: patent US20120283175A1, “ANTIBACTERIAL COMPOSITIONS” (Achaogen, Inc., priority 2009, published 2012)
≈ marks a conversion by molar mass, not a printed value. Entries after “also recorded” stand apart in the source; their conditions may differ. Where two headings read alike, the source gives them in different places.

How the values were obtained:
envA+ (D21) E. coli = assay: MIC by broth microdilution, isogenic envA+ strain; type: cell-based
Method: (§1) Bacterial isolates were cultivated from −70° C. frozen stocks of the indicated strains by overnight passages at 35° C. in ambient air on Mueller-Hinton agar (Beckton Dickinson, Franklin Lakes, N.J.). Minimum Inhibitory Concentrations (MICs) were determined by the broth microdilution method in accordance with the Clinical and Laboratory Standards Institute (CLSI) guidelines. In brief, organism suspensions were adjusted to a 0.5 McFarland standard to yield a final inoculum between 3×10^5 and 7×10^5 colony-forming units (CFU)/mL. Drug dilutions and inocula were made in sterile, cation adjusted Mueller-Hinton Broth (Beckton Dickinson). An inoculum volume of 100 μL was added to wells containing 100 μL of broth with 2-fold serial dilutions of drug. All inoculated microdilution trays were incubated in ambient air at 35° C. for 18-24 hours. Following incubation, the lowest concentration of the drug that prevented visible growth (OD600 nm <0.05) was recorded as the MIC.

E. coli ATCC25922 = assay: MIC by broth microdilution, wild type strain ATCC25922; type: cell-based
Method: as §1

Yersinia enterocolitica = assay: Checkerboard synergy assay with LpxCi-4; type: cell-based; conditions: combination with LpxCi-4
Text: (§2) One classic method for assessing synergy, referred to as the checkerboard assay, is used to predict the efficacy of antibacterial agents, and is described by Scribner et. al., (Antimicrobial Agents and Chemotherapy 21(6):939-943 (1982)) and in Goodman & Gilman (The Pharmacological Basis of Therapeutics, Sixth Edition, pp. 1097-1098 (1980)). The checkerboard assay involves serial two-fold dilutions of the antibiotics individually and in combination in broth, which is then inoculated with the microorganism to be tested. After incubation, the minimum inhibitory concentration (MIC) of each drug used individually and in combination is determined (N.B., the MIC is the lowest concentration of the drug that inhibits growth in the medium). Synergism is indicated by a decrease in the MIC of each drug when used in combination. Antagonism is indicated by an increase in the MIC of either or both drugs when used in combination. Alternate methods of assessing synergy are reviewed in Greco, et al., Pharmacological Reviews 47(2):[…] (1995), incorporated herein by reference in its entirety.
(§3) Partial or full inhibition of LpxC should compromise the outer membrane and thus allow these synergizing agents to enter the cells and exert an antibacterial effect at concentrations where cells untreated with an LpxC inhibitor are unaffected. As a first step, checkerboard synergy assays for a variety of antibacterial agents were perform with several LpxC inhibitors, on several species of gram negative bacteria.
as §1
(§4) Standard checkerboard assays were performed with a combination of the indicated agents and LpxCi-4. Table 2 provides the FICI calculated according to standard techniques.

Pseudomonas aeruginosa = assay: Checkerboard synergy assay with LpxCi-4; type: cell-based; conditions: combination with LpxCi-4 (3936), Pseudomonas aeruginosa (ATCC27853 in text)
Text: as §2, §3, §1, §4

Klebsiella pneumoniae = assay: Checkerboard synergy assay with LpxCi-4; type: cell-based; conditions: combination with LpxCi-4
Text: as §2, §3, §1, §4

envA1 (D22) E. coli = assay: MIC by broth microdilution, isogenic envA1 mutant strain; type: cell-based; conditions: for MIC: Strain envA1 (D21); for Fold decrease in MIC (envA+/envA1): envA+ vs envA1 E. coli
Method: as §1

gram negative bacteria = assay: Checkerboard synergy score at fractions of the antibacterial agent's MIC, with LpxCi-1, -2, -3; type: cell-based; set-up: scale not given here
Method: as §3, §1

[1] = system: P. aeruginosa (ATCC27853); conditions: for ΔLogCFU vs 24 hr / Log CFU Mean: 24 hr; for Log CFU Mean: n=5
Text: (§5) The model was run essentially as described by Craig and others (see Gudmundsson et al., “Murine Thigh Infection Model,” Handbook of Animal Models of Infection, M. A. Sande and O. Zak, Eds.; London: Academic Press, 1999, pp 137-144). Briefly, mice were rendered neutropenic prior to infection with 2 doses of cyclophosphamide, and then infected intramuscularly in the thigh with inocula of 10^3-10^5 CFU of either K. pneumo. (ATCC43816) or P. aeruginosa (ATCC27853). Antibiotics or vehicle alone as a negative control were administered twice at 2 hrs and 14 hrs post-infection. The animals were kept neutropenic for the duration of the experiment in order to minimize the effect of white blood cells on the infection such that the microbiological readout measures the in vivo interaction of drugs and bacteria. At 24 hrs post-infection, thighs were harvested, homogenized, and plated to measure the number of CFUs surviving per thigh. Thighs from a subset of animals were also harvested 2 hrs post-infection to record the CFUs present just prior to the first antibiotic treatment (pre-treatment).
This table focuses on the sensitive part of the LpxCi-4 dose response curve (30 mg/kg) by examining the mean log CFU at 0 or 24 hours, as well as the log change in CFU at 24 hours relative to zero hours (“ΔLogCFU vs […]”). Data is given for animals treated with vehicle, LpxCi-4 at 30 mg/kg, a second agent alone at the indicated doses or the combination of LpxCi-4 at 30 mg/kg plus the second agent at the indicated dose. The standard errors for each measurement are also given (n=5 animals/group). By comparing the observed drop in CFU of the combination with the sum of the drop in CFU associated with each of the two agents given separately, one can determine whether the combination is, in fact, synergistic in vivo.

K. pneumo. (ATCC43816) = assay: Neutropenic thigh in vivo efficacy model (mice); set-up: species or system Klebsiella pneumoniae; conditions: K. pneumo. (ATCC43816); summary
Text: as §5

[2] = second block of Table 5, mg/kg/day b.i.d.: 3936 30, Eryth. 60, Dapto. 3, Oxacil. 100
[3] = first block of Table 5, mg/kg/day b.i.d.: 3936 30, Rif. 30, Azith. 50

Row | Compound | MIC (envA+ (D21) E. coli) [µg/mL] | MIC (E. coli ATCC25922) [µg/mL] | FICI index (Yersinia enterocolitica) | FICI index (Pseudomonas aeruginosa) | FICI index (Klebsiella pneumoniae) | MIC (envA1 (D22) E. coli) [µg/mL] | other results
1 | teicoplanin | > 256 | > 256 | ≦0.25 | no effect | ≦0.37 | 32 | Fold decrease in MIC (envA+/envA1) (envA1 (D22) E. coli): ≧8
2 | Nc1nc(/C(=N/O)C(=O)N[C@@H]2C(=O)N3C(C(=O)O)=C(/C=C4\CCN([C@@H]5CCNC5)C4=O)CS[C@H]23)ns1 [Ceftobioprole] |  |  | 0.5 | 0.5 | 0.63 |  | 
3 | C[C@H]1COc2c(N3CCN(C)CC3)c(F)cc3c(=O)c(C(=O)O)cn1c23 [Levofloxacin] |  |  | 0.63 | no effect | 0.5 |  | 
4 | CCC[C@@H]1C[C@@H](C(=O)N[C@@H]([C@H]2O[C@H](SC)[C@H](O)[C@@H](O)[C@H]2O)[C@H](C)Cl)N(C)C1 [Clindamycin, clindamycin] |  |  | 0.13 | no effect | ≦0.5 |  | 
5 | CC(=O)NC[C@H]1CN(c2ccc(N3CCOCC3)c(F)c2)C(=O)O1 [Linezolid, linezolid] |  |  |  | no effect | ≦0.5 |  | Synergy Score (gram negative bacteria; with LpxCi-1, antibacterial agent at 1/16 MIC): 0.46; Synergy Score (gram negative bacteria; with LpxCi-1, antibacterial agent at 1/64 MIC): 1.03; Synergy Score (gram negative bacteria; with LpxCi-1, antibacterial agent at ¼ MIC): 0.54; Synergy Score (gram negative bacteria; with LpxCi-2, antibacterial agent at ¼ MIC): 1.25; Synergy Score (gram negative bacteria; with LpxCi-3, antibacterial agent at 1/16 MIC): 1.06; Synergy Score (gram negative bacteria; with LpxCi-3, antibacterial agent at 1/64 MIC): 1.02; Synergy Score (gram negative bacteria; with LpxCi-3, antibacterial agent at ¼ MIC): 0.58
6 | CCCCCCCCCC(=O)N[C@@H](Cc1c[nH]c2ccccc12)C(=O)N[C@H](CC(N)=O)C(=O)N[C@@H](CC(=O)O)C(=O)N[C@@H]1C(=O)NCC(=O)N[C@@H](CCCN)C(=O)N[C@@H](CC(=O)O)C(=O)N[C@H](C)C(=O)N[C@@H](CC(=O)O)C(=O)NCC(=O)N[C@H](CO)C(=O)N[C@@H]([C@H](C)CC(=O)O)C(=O)N[C@@H](CC(=O)c2ccccc2N)C(=O)O[C@@H]1C [Daptomycin, daptomycin] | 256 (≈ 158 µM) | > 256 |  | no measurable synergy; also recorded: no effect | no measurable synergy; also recorded: no effect | 32 (≈ 19.7 µM) | Fold decrease in MIC (envA+/envA1) (envA1 (D22) E. coli): 8; MIC shift due to modification of envA (envA1 (D22) E. coli; isogenic envA1 (D22) vs envA+ (D21) E. coli): 8 ×; ΔLogCFU vs 24 hr [1, 2]: −1.04; Log CFU Mean [1, 2]: 6.6
7 | gentamicin |  |  | 0.5 | 0.38 | 0.75 |  | 
8 | CO/N=C(\C(=O)N[C@@H]1C(=O)N2C(C(=O)O)=C(COC(C)=O)CS[C@H]12)c1csc(N)n1 [Cefotaxime, cefotaxime] |  |  | ≦0.5 | ≦1.0 | 0.5 |  | 
9 | CO[C@H]1/C=C/O[C@@]2(C)Oc3c(C)c(O)c4c(O)c(c(/C=N/N5CCN(C)CC5)c(O)c4c3C2=O)NC(=O)/C(C)=C\C=C\[C@H](C)[C@H](O)[C@@H](C)[C@@H](O)[C@@H](C)[C@H](OC(C)=O)[C@@H]1C [Rifampin, rifampin] | 16 (≈ 19.4 µM) | 16 (≈ 19.4 µM) | 0.19 | ≦1.0 | ≦0.08 | 0.25 (≈ 0.304 µM) | in vivo synergy with multiple LpxC inhibitors (K. pneumo. (ATCC43816)): surprising in vivo synergy; FICI index (Pseudomonas aeruginosa; listed as rifampin): < 1.0; ΔLogCFU vs 24 hr [1, 3]: −0.28; Log CFU Mean [1, 3]: 7.46; in vivo synergy with LpxC inhibitors ([1]; P. aeruginosa (ATCC27853), summary): surprising in vivo synergy; drop in CFU relative to vehicle ([1]; each agent at 30 mg/kg): 0.28 log
